Results: patent US11731956B2, “Substituted 1,2,4-triazoles as intermediates in the synthesis of TYK2 inhibitors” (Alumis Inc., priority 2018, dated 2023)
Values belong to the molecule of their own block, whether it stands above or below them.

How the values were obtained:
[1] = Pharmacokinetic study in cynomolgus monkeys; assay type: in vivo
Experimental: (§1) The pharmacokinctics of test compounds were evaluated in male C57BL/6 mice, Sprague Dawley rats, Beagle dogs, and cynomolgus monkeys when administered via oral gavage and IV injection. The animals were fasted overnight before administration. Plasma samples were collected predose and at 0.5, 1, 3, 6, 9, 12, and 24 hours postdose. The samples were analyzed by LC/MS/MS and the concentration of test compound at each timepoint was determined by linear regression. Pharmacokinetic parameters were calculated from the plasma concentrations using Pheonix WinNonlin.

[2] = Pharmacokinetic study in Beagle dogs; assay type: in vivo; conditions: dog, plasma
Experimental: as §1

[3] = Pharmacokinetic study in C57BL/6 mice; assay type: in vivo, male C57BL/6 mice
Experimental: as §1

[4] = Pharmacokinetic study in Sprague Dawley rats; assay type: in vivo; conditions: rat, plasma
Experimental: as §1

[5] = Oral (2 mg/kg), NA: no detectable
[6] = cynomolgus monkey, plasma, iv, I.V. (1 mg/kg)
[7] = male, mouse, plasma, Oral (10 mg/kg)
[8] = male, mouse, plasma, iv, I.V. (2 mg/kg)
[9] = cynomolgus monkey, plasma, Oral (2 mg/kg), NA: no detectable
[10] = iv, I.V. (1 mg/kg), read-out: Vdss

Structure (SMILES): [2H]C([2H])([2H])CC(=O)c1cnc(NC(=O)C2CC2)cc1Nc1cccc(-c2ncn(C([2H])([2H])[2H])n2)c1OC [Example 195]
Cmax [1, 5]: 663 ± 497 ng/mL
F % [1, 5]: 16.6 ± 9.95%
Tmax [1, 5]: 4.0 ± 0 h
C0 [1, 6]: 1290 ± 106 ng/mL
C0 ([2]; iv, I.V. (1 mg/kg)): 185 ± 8.4 ng/mL
CL ([3]; I.V. (2 mg/kg)): 4.16 mL · kg − 1 · min − 1
Vdss ([3]; I.V. (2 mg/kg)): 0.688 L/kg
Cmax ([3]; Oral (10 mg/kg)): 4295 ng/mL
F % ([3]; Oral (10 mg/kg)): 41.7%
Tmax ([3]; Oral (10 mg/kg)): 30 min
AUC [3, 7]: 16700 ng·h/mL
AUC [3, 8]: 7990 ng·h/mL
C0 [3, 8]: 2950 ng/mL
C0 ([4]; iv, I.V. (1 mg/kg)): 2150 ± 123 ng/mL

Structure (SMILES): [2H]C([2H])([2H])CC(=O)c1cnc(Nc2cccc(C#N)n2)cc1Nc1cccc(-c2ncn(C([2H])([2H])[2H])n2)c1OC [Example 198]
Cmax [1, 5]: 246 ± 124 ng/mL
F % [1, 5]: 59.4 ± 21.1%
Tmax [1, 5]: 4 ± 0 h
C0 [1, 6]: 667 ± 82 ng/mL
C0 ([2]; iv, I.V. (1 mg/kg)): 182 ± 47.6 ng/mL
C0 ([4]; iv, I.V. (1 mg/kg)): 1200 ± 70 ng/mL

Structure (SMILES): [2H]C([2H])([2H])CC(=O)c1cnc(Nc2cccc(C#N)n2)cc1Nc1nccc(-c2ncn(C([2H])([2H])[2H])n2)c1OC [Example 199]
C0 ([2]; iv, I.V. (1 mg/kg)): 334 ± 96 ng/mL
C0 ([4]; iv, I.V. (1 mg/kg)): 414 ± 56 ng/mL

Structure (SMILES): [2H]C([2H])([2H])CC(=O)c1cnc(NC(=O)C2CC2)cc1Nc1nccc(-c2ncn(C([2H])([2H])[2H])n2)c1OC [Example 200]
Cmax [1, 5]: 384 ± 22 ng/mL
F % [1, 5]: 27.7 ± 1.7%
Tmax [1, 5]: 2.0 ± 0 h
C0 [1, 6]: 677 ± 81 ng/mL
C0 ([2]; iv, I.V. (0.5 mg/kg)): 29.7 ± 14 ng/mL
clearance ([2]; iv, I.V. (0.5 mg/kg)): 8.17 ± 2.6 mL/min/kg
CL ([3]; I.V. (2 mg/kg)): 7.35 mL · kg − 1 · min − 1
Vdss ([3]; I.V. (2 mg/kg)): 1.5 L/kg
Cmax ([3]; Oral (10 mg/kg)): 4193 ng/mL
F % ([3]; Oral (10 mg/kg)): 85.1%
Tmax ([3]; Oral (10 mg/kg)): 15 min
AUC [3, 7]: 19300 ng·h/mL
AUC [3, 8]: 4480 ng·h/mL
C0 [3, 8]: 2390 ng/mL
C0 ([4]; iv, I.V. (1 mg/kg)): 1030 ± 47 ng/mL

Structure (SMILES): [2H]C([2H])([2H])CC(=O)c1cnc(Nc2ccc(C(C)(C)O)c(F)n2)cc1Nc1nccc(-c2ncn(C([2H])([2H])[2H])n2)c1OC [Example 201]
Cmax [1, 5]: 13.9 ± 2 ng/mL
F % [1, 5]: 4.67 ± 1.5%
Tmax [1, 5]: 2.33 ± 1.5 h
C0 [1, 6]: 849 ± 50 ng/mL
C0 ([2]; iv, I.V. (1 mg/kg)): 458 ± 336 ng/mL
C0 ([4]; iv, I.V. (1 mg/kg)): 1190 ± 116 ng/mL

Next, values leading:

C0 ([2]; iv, I.V. (1 mg/kg)): 469 ± 255 ng/mL
CL ([3]; I.V. (2 mg/kg)): 17.3 mL · kg − 1 · min − 1
Vdss ([3]; I.V. (2 mg/kg)): 0.785 L/kg
Cmax ([3]; Oral (10 mg/kg)): 1899 ng/mL
F % ([3]; Oral (10 mg/kg)): 66.6%
Tmax ([3]; Oral (10 mg/kg)): 30 min
AUC [3, 7]: 6400 ng·h/mL
AUC [3, 8]: 1910 ng·h/mL
C0 [3, 8]: 3340 ng/mL
C0 ([4]; iv, I.V. (1 mg/kg)): 1980 ± 101 ng/mL
Structure (SMILES): [2H]C([2H])([2H])CC(=O)c1cnc(Nc2ccc(C(C)(C)O)c(F)n2)cc1Nc1cccc(-c2ncn(C([2H])([2H])[2H])n2)c1OC [Example 202]

C0 [1, 6]: 787 ± 61 ng/mL
Structure (SMILES): [2H]C([2H])([2H])CC(=O)c1cnc(Nc2ccc(C(O)(C([2H])([2H])[2H])C([2H])([2H])[2H])c(F)n2)cc1Nc1ncccc1S(C)(=O)=O [Example 203]

AUC [1, 9]: 3190 ± 1630 ng·h/mL
bioavailability [1, 9]: 27.8 ± 14%
half-life [1, 9]: 636 ± 228 min
Cmax ([1]; cynomolgus monkey, plasma, Oral (2 mg/kg), NA: no detectable, read-out: Cmax): 247 ± 136 ng/mL
Tmax ([1]; cynomolgus monkey, plasma, Oral (2 mg/kg), NA: no detectable, read-out: Tmax): 5.33 ± 1.2 h
AUC [1, 6]: 5740 ± 1170 ng·h/mL
C0 [1, 6]: 1420 ± 264 ng/mL
clearance [1, 6]: 2.79 ± 0.74 mL/min/kg
half-life [1, 6]: 452 ± 96 min
Vd ([1]; cynomolgus monkey, plasma, iv, I.V. (1 mg/kg), read-out: Vdss): 1.2 ± 0.042 L/kg
AUC ([2]; Oral (2 mg/kg)): 1310 ± 579 ng·h/mL
Cmax ([2]; Oral (2 mg/kg)): 222 ± 46 ng/mL
Tmax ([2]; Oral (2 mg/kg)): 1.67 ± 0.58 h
bioavailability ([2]; Oral (2 mg/kg)): 35.5 ± 15%
half-life ([2]; Oral (2 mg/kg)): 373 ± 174 min
AUC ([2]; iv, I.V. (1 mg/kg)): 1900 ± 349 ng·h/mL
C0 ([2]; iv, I.V. (1 mg/kg)): 559 ± 34 ng/mL
clearance ([2]; iv, I.V. (1 mg/kg)): 8.85 ± 1.7 mL/min/kg
half-life ([2]; iv, I.V. (1 mg/kg)): 266 ± 52.2 min
Vd [2, 10]: 2.27 ± 0.23 L/kg
AUC [3, 7]: 8870 ng·h/mL
bioavailability [3, 7]: 86.7%
half-life [3, 7]: 178 min
Cmax ([3]; male, mouse, plasma, Oral (10 mg/kg), read-out: Cmax): 4700 ng/mL
Tmax ([3]; male, mouse, plasma, Oral (10 mg/kg), read-out: Tmax): 15 min
AUC [3, 8]: 2040 ng·h/mL
C0 [3, 8]: 3220 ng/mL
clearance [3, 8]: 15.6 mL/min/kg
half-life [3, 8]: 131 min
Vd ([3]; male, mouse, plasma, iv, I.V. (2 mg/kg), read-out: Vdss): 1.56 L/kg
AUC ([4]; Oral (5 mg/kg)): 3200 ± 600 ng·h/mL
Cmax ([4]; Oral (5 mg/kg)): 792 ± 260 ng/mL
Tmax ([4]; Oral (5 mg/kg)): 1 ± 0.87 h
bioavailability ([4]; Oral (5 mg/kg)): 32.6 ± 5.4%
half-life ([4]; Oral (5 mg/kg)): 176 ± 72 min
AUC ([4]; iv, I.V. (1 mg/kg)): 1970 ± 166 ng·h/mL
C0 ([4]; iv, I.V. (1 mg/kg)): 1740 ± 276 ng/mL
clearance ([4]; iv, I.V. (1 mg/kg)): 8.41 ± 0.7 mL/min/kg
half-life ([4]; iv, I.V. (1 mg/kg)): 145 ± 102 min
Vd [4, 10]: 0.933 ± 0.12 L/kg
Structure (SMILES): [2H]C([2H])([2H])NC(=O)c1nnc(NC(=O)C2CC2)cc1Nc1cccc(-c2ncn(C)n2)c1OC [control, BMS-986165, reference compound]
